Measured values: ChEMBL document CHEMBL4196033, “Potent hydrazone derivatives targeting esophageal cancer cells” (Eur J Med Chem, 2018)
pIC50: −log10 of the molar value. The source made the active and inactive calls. The calls are words filed in the database; no cut-off is given here.

Key:
[1] = test system: ECa-109 cell line; test: Induction of apoptosis in human EC109 cells assessed as decrease in Bcl2 protein expression after 48 hrs by Western blot analysis; assay type: functional, cell-based
[2] = test system: EC9706; test: Cell cycle arrest in human EC9706 cells assessed as decrease in G2/M phase population at 2 uM after 24 hrs by propidium iodide staining based flow cytometry relative to control; assay type: functional
[3] = test system: ECa-109 cell line; test: Induction of apoptosis in human EC109 cells after 48 hrs by Annexin V-FITC/propidium iodide staining based flow cytometry; assay type: functional, cell-based
[4] = test system: EC9706; test: Upregulation of p27 protein expression in human EC9706 cells at 2 uM after 24 to 48 hrs by Western blot analysis relative to control; assay type: functional
[5] = test system: ECa-109 cell line; test: Induction of apoptosis in human EC109 cells assessed as live cells at 2 uM after 48 hrs by Annexin V-FITC/propidium iodide staining based flow cytometry (reference value: 95.2 to 99%); assay type: functional
[6] = test system: EC9706; test: Induction of apoptosis in human EC9706 cells assessed as increase in cleaved caspase-8 protein expression after 48 hrs by Western blot analysis; assay type: functional, cell-based
[7] = test system: EC9706; test: Induction of apoptosis in human EC9706 cells assessed as increase in Bax protein expression after 48 hrs by Western blot analysis; assay type: functional, cell-based
[8] = test system: EC9706; test: Effect on Prxs-4 protein expression in human EC9706 cells at 2 to 8 uM after 48 hrs by Western blot analysis; assay type: functional, cell-based
[9] = test system: ECa-109 cell line; test: Induction of apoptosis in human EC109 cells assessed as increase in cleaved caspase-9 protein expression after 48 hrs by Western blot analysis; assay type: functional, cell-based
[10] = test system: Mus musculus; test: Acute toxicity in C57BL/6 mouse assessed as histopathological changes in heart at 2 g/kg, ig measured for 2 weeks by hematoxylin and eosin staining based microscopic method; assay type: organism-based; conditions: in vivo, po, 2000 mg/kg, 336 h
[11] = test system: ECa-109 cell line; test: Induction of apoptosis in human EC109 cells assessed as increase in Bax protein expression after 48 hrs by Western blot analysis; assay type: functional, cell-based
[12] = test system: ECa-109 cell line; test: Upregulation of p27 protein expression in human EC109 cells at 2 uM after 24 to 48 hrs by Western blot analysis relative to control; assay type: functional
[13] = test system: ECa-109 cell line; test: Induction of apoptosis in human EC109 cells assessed as late apoptotic cells at 8 uM after 48 hrs in presence of caspase inhibitor Z-VAD-FMK by Annexin V-FITC/propidium iodide staining based flow cytometry (reference value: 0.01%); assay type: functional
[14] = test system: SMMC-7721; test: Antiproliferative activity against human SMMC7721 cells after 72 hrs by MTT assay; assay type: functional, cell-based; conditions: SMMC-7721, 72 h
[15] = test system: ECa-109 cell line; test: Cell cycle arrest in human EC109 cells assessed as accumulation at G0/G1 phase after 24 hrs by propidium iodide staining based flow cytometry; assay type: functional
[16] = test system: ECa-109 cell line; test: Induction of apoptosis in human EC109 cells assessed as live cells at 8 uM after 48 hrs in presence of caspase inhibitor Z-VAD-FMK by Annexin V-FITC/propidium iodide staining based flow cytometry (reference value: 96.2%); assay type: functional
[17] = test system: EC9706; test: Induction of ROS generation in human EC9706 cells at 8 uM after 24 hrs by DCFH-DA staining based flow cytometry relative to control; assay type: functional
[18] = test system: ECa-109 cell line; test: Induction of apoptosis in human EC109 cells assessed as late apoptotic cells at 8 uM after 48 hrs by Annexin V-FITC/propidium iodide staining based flow cytometry (reference value: 0.2 to 1.74%); assay type: functional
[19] = test system: ECa-109 cell line; test: Induction of apoptosis in human EC109 cells assessed as necrotic cells at 4 uM after 48 hrs in presence of caspase inhibitor Z-VAD-FMK by Annexin V-FITC/propidium iodide staining based flow cytometry (reference value: 2.37%); assay type: functional
[20] = test system: EC9706; test: Effect on Prxs-3 protein expression in human EC9706 cells at 2 to 8 uM after 48 hrs by Western blot analysis; assay type: functional, cell-based
[21] = test system: ECa-109 cell line; test: Induction of morphological changes in human EC109 cells assessed as cell rounding after 48 hrs by Hoechst 33342 staining based fluorescence microscopic method; assay type: functional
[22] = test system: ECa-109 cell line; test: Induction of apoptosis in human EC109 cells assessed as necrotic cells at 2 uM after 48 hrs by Annexin V-FITC/propidium iodide staining based flow cytometry (reference value: 0.74 to 1.18%); assay type: functional
[23] = test system: ECa-109 cell line; test: Induction of apoptosis in human EC109 cells assessed as early apoptotic cells at 8 uM after 48 hrs by Annexin V-FITC/propidium iodide staining based flow cytometry (reference value: 0.43 to 1.15%); assay type: functional
[24] = test system: EC9706; test: Induction of apoptosis in human EC9706 cells assessed as early apoptotic cells at 4 uM after 48 hrs by Annexin V-FITC/propidium iodide staining based flow cytometry (reference value: 0.68 to 1.58%); assay type: functional
[25] = test system: ECa-109 cell line; test: Induction of apoptosis in human EC109 cells assessed as late apoptotic cells at 2 uM after 48 hrs by Annexin V-FITC/propidium iodide staining based flow cytometry (reference value: 0.2 to 1.74%); assay type: functional
[26] = test system: EC9706; test: Induction of ROS generation in human EC9706 cells at 4 uM after 24 hrs by DCFH-DA staining based flow cytometry relative to control; assay type: functional
[27] = test system: EC9706; test: Induction of apoptosis in human EC9706 cells assessed as necrotic cells at 8 uM after 48 hrs in presence of caspase inhibitor Z-VAD-FMK by Annexin V-FITC/propidium iodide staining based flow cytometry (reference value: 1.2%); assay type: functional
[28] = test system: Mus musculus; test: Acute toxicity in C57BL/6 mouse assessed as change in body weight at 2 g/kg, ig measured for 2 weeks; assay type: organism-based; conditions: in vivo, po, 2000 mg/kg, 336 h
[29] = test system: EC9706; test: Antiproliferative activity against human EC9706 cells after 24 hrs by MTT assay; assay type: functional, cell-based; conditions: EC9706, 24 h
[30] = test system: EC9706; test: Cell cycle arrest in human EC9706 cells assessed as increase in S phase population at 2 uM after 24 hrs by propidium iodide staining based flow cytometry relative to control; assay type: functional
[31] = test system: EC9706; test: Induction of morphological changes in human EC9706 cells assessed as apoptotic body formation after 48 hrs by Hoechst 33342 staining based fluorescence microscopic method; assay type: functional, cell-based
[32] = test system: ECa-109 cell line; test: Induction of apoptosis in human EC109 cells assessed as necrotic cells at 8 uM after 48 hrs in presence of caspase inhibitor Z-VAD-FMK by Annexin V-FITC/propidium iodide staining based flow cytometry (reference value: 2.37%); assay type: functional
[33] = Selectivity index, ratio of IC50 for antiproliferative activity against human GES-1 cells after 72 hrs to IC50 for antiproliferative activity against human MGC803 cells after 72 hrs; assay type: toxicity, cell-based; conditions: GES-1 cells versus MGC803 cells, read-out: Ratio IC50
[34] = test system: EC9706; test: Effect on Prxs-5 protein expression in human EC9706 cells at 2 to 8 uM after 48 hrs by Western blot analysis; assay type: functional, cell-based
[35] = test system: EC9706; test: Induction of apoptosis in human EC9706 cells assessed as increase in cleaved caspase-9 protein expression after 48 hrs by Western blot analysis; assay type: functional, cell-based
[36] = test system: MCF7; test: Antiproliferative activity against human MCF7 cells after 72 hrs by MTT assay; assay type: functional, cell-based; conditions: MCF7, 72 h
[37] = test system: EC9706; test: Induction of apoptosis in human EC9706 cells assessed as live cells at 8 uM after 48 hrs by Annexin V-FITC/propidium iodide staining based flow cytometry (reference value: 85.5 to 96%); assay type: functional
[38] = test system: ECa-109 cell line; test: Induction of apoptosis in human EC109 cells assessed as increase in cleaved caspase-3 protein expression after 48 hrs by Western blot analysis; assay type: functional, cell-based

For `COc1ccc(/C=N/NC(=O)c2cccc(S(=O)(=O)N3CCOCC3)c2)c(O)c1`, the Activity [1] was “Dose-dependent effect”, the “fold change (FC)” value [2] was 0.28 and the Activity [3] was “Dose-dependent effect”. The “fold change (FC)” value [4] was 1.3, the Activity [5] was 79.1% and the Activity [6] was “Dose-dependent effect”. For the same molecule, the Activity [7] was “Dose-dependent effect”, the Activity [8] was “Active” and the Activity [9] was “Dose-dependent effect”. The Activity [10] was “Non-Toxic”, the Activity [11] was “Dose-dependent effect” and the “fold change (FC)” value [12] was 1.2. For the same molecule, the Activity [13] was 21.2%, the pIC50 [14] was 5.40 and the Activity [15] was “Dose-dependent effect”. The Activity [16] was 26.9%, the “fold change (FC)” value [17] was 1.95 and the Activity [18] was 42.4 - 43%. For the same molecule, the Activity [19] was 20.4%, the Activity [20] was “Active” and the Activity [21] was “Dose-dependent effect”. For the same molecule, the Activity [22] was 2.64%, the Activity [23] was 18.7 - 25% and the Activity [24] was 10.8 - 29.9%. The Activity [25] was 6.84%, the “fold change (FC)” value [26] was 1.45 and the Activity [27] was 17%. The Activity [28] was “Non-Toxic”, the pIC50 [29] was less than 4.70 and the “fold change (FC)” value [30] was 1.54. For the same molecule, the Activity [31] was “Dose-dependent effect”, the Activity [32] was 17.6% and the selectivity ratio at 72 h [33] was 7.2. The Activity [34] was “Active”, the Activity [35] was “Dose-dependent effect” and the pIC50 [36] was 5.29. The Activity [37] was 29.9 - 61.1% and the Activity [38] was “Dose-dependent effect”.
